Experiment [1] addresses BRD4 (His-Brd4(44-477)) (Homo sapiens (Human), UniProt O60885). The experiment in a line: TR-FRET in-vitro binding assay for BRD4. The note with it: single determination or n ≧ 2 independent determinations, read-out: Biochemical IC50 BRD4. A digest of the protocol: (§1)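 In this TR-FRET format, each compound was tested as an 8-point dilution series, single point per concentration, dispensed from 90% DMSO solution. Incubation lasted 35 minutes at 30° C.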

Experiment [2] has as its target BRD2 (His-Brd2(60-472)) (Homo sapiens (Human), UniProt P25440). The experiment in a line: TR-FRET in-vitro binding assay for BRD2. To be noted: single determination or n ≧ 2 independent determinations, read-out: Biochemical IC50 BRD2. The method in brief:
as §1
(In general: In TR-FRET formats the signal depends on donor and acceptor labels being close together.)

Experiment [3] deals with BRD3 (His-Brd3(20-477)) (Homo sapiens (Human), UniProt Q15059). The experiment in a line: TR-FRET in-vitro binding assay for BRD3. To be noted: single determination or n ≧ 2 independent determinations, read-out: Biochemical IC50 BRD3. A digest of the protocol: as §1
BRD3 (His-Brd3(20-477)), sequence (Q15059 20-477): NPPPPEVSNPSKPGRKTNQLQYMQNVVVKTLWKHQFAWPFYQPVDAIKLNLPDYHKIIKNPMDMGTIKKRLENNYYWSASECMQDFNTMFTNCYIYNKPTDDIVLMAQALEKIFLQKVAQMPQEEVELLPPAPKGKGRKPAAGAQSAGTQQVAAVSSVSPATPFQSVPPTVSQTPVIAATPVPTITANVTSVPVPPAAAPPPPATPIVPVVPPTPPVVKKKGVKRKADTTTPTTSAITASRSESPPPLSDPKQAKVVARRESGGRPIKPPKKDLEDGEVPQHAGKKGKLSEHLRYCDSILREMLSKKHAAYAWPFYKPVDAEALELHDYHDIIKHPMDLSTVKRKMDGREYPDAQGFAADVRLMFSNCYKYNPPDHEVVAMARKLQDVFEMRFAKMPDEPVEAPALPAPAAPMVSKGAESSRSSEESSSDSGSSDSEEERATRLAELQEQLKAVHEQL
Experiment [4] deals with CREBBP bromodomain (His-CREBBP(1081-1197)) (Homo sapiens (Human), UniProt Q92793). The experiment in a line: AlphaScreen in-vitro binding assay for CREBBP. To be noted: single determination or n ≧ 2 independent determinations, read-out: Biochemical IC50 CREBBP. A digest of the protocol:
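Detection used nickel-chelate acceptor plus streptavidin donor AlphaScreen beads, 1 h room temperature. Percent inhibition fitted by non-linear regression to IC50.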
In general terms: In Alpha technology, singlet oxygen from a donor bead excites a nearby acceptor bead.

The subject of experiment [5] is THP-1 cells. The experiment in a line: Cell growth inhibition assay (CellTiter-Glo), THP-1.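 As to all read-outs here: viability read as cellular ATP luminescence after 4 days, 3-fold dilution series from 10 µM, DMSO vehicle-treated cells taken as 100%, cell-free medium wells as −100%.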 The note with it: for GI50: Homo sapiens, THP-1, read-out: THP-1 GI50; for THP-1 TGI: THP-1 cells, total growth inhibition, CellTiter-Glo. Background: ATP-based viability assays read luminescence as a measure of living cells.
For experiment [6], the system named is K-562 cells. The experiment in a line: Cell growth inhibition assay (CellTiter-Glo), K-562.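 As to all read-outs here: cellular ATP measured by luminescence after 4 days of exposure, 3-fold dilution series from 10 µM, DMSO vehicle-treated cells define 100%, cell-free medium wells −100%.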 To be noted: for GI50: Homo sapiens, K562, read-out: K-562 GI50; for K-562 TGI: K-562 cells, total growth inhibition, CellTiter-Glo.
The subject of experiment [7] is MV-4-11 cells. Description: Cell growth inhibition assay (CellTiter-Glo), MV-4-11.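 As to all read-outs here: cellular ATP luminescence after 4 days, 3-fold dilution series from 10 µM top dose, vehicle (0.1% DMSO) set to 100%, cell-free medium set to −100%, day 0 corrected.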 To be noted: for GI50: Homo sapiens, MV4-11, read-out: MV-4-11 GI50; for MV-4-11 TGI: MV-4-11 cells, total growth inhibition, CellTiter-Glo.

By IC50 is commonly meant the point on the concentration scale where inhibition reaches its midpoint. As usually defined, the GI50 is the concentration at which growth is held to half of that of the control.

Where only a bound is given, the exact number is not on record here.

CREBBP bromodomain (His-CREBBP(1081-1197)), sequence (Q92793 1081-1197): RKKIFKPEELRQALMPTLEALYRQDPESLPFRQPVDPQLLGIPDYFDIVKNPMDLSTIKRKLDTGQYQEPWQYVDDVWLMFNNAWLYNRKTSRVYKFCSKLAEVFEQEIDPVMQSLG
BRD2 (His-Brd2(60-472)), sequence (P25440 60-472): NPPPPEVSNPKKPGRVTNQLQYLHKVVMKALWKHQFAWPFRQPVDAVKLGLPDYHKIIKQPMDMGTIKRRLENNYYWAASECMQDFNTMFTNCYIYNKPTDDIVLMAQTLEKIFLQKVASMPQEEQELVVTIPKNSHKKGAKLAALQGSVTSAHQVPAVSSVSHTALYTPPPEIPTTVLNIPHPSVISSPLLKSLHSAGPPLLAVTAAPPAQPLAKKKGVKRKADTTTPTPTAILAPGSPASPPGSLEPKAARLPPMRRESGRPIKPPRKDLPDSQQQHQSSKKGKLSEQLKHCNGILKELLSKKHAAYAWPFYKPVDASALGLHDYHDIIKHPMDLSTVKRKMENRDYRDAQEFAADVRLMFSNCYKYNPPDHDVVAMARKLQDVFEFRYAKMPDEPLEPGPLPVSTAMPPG

Turning to `COc1ncc(-c2nc3c([nH]2)C(c2ccc(Cl)cc2)N(c2cc(C)c4nnc(C)n4c2)C3=O)c(OC)n1` (centres unmarked) [Example 124, 6-(4-chlorophenyl)-2-(2,4-dimethoxypyrimidin-5-yl)-5-(3,8-dimethyl-[1,2,4]triazolo[4,3-a]pyridin-6-yl)-5,6-dihydropyrrolo[3,4-d]imidazol-4(1H)-one], the IC50 in experiment [1] was 38 nM; in experiment [2] it was 94 nM; in experiment [3] it was 39 nM; in experiment [4], 3800 nM. Further, the figures for the GI50 in experiment [5], in experiment [6] and in experiment [7] were 66.3 nM, 257 nM and 56.2 nM, respectively. In addition, the “THP-1 TGI” value in experiment [5] was 134.5 nM. Moreover, the “K-562 TGI” value in experiment [6] is more than 10000 nM. In addition, in experiment [7], the “MV-4-11 TGI” value was determined as 96.75 nM.
For the compound `COc1ccc(-c2nc3c([nH]2)[C@@H](c2ccc(Cl)cc2)N(c2cc(OC)c4nnc(C)n4c2)C3=O)cn1` [Example 126, (R)-6-(4-chlorophenyl)-5-(8-methoxy-3-methyl-[1,2,4]triazolo[4,3-a]pyridin-6-yl)-2-(6-methoxypyridin-3-yl)-5,6-dihydropyrrolo[3,4-d]imidazol-4(1H)-one], the 50% inhibitory concentration (IC50) in experiment [1] was found to be 104 nM; in experiment [2] it was 385 nM; in experiment [3] it was 283 nM; in experiment [4], 25900 nM. The GI50 in experiment [5] stood at 947 nM; in experiment [6] it was 2270 nM; in experiment [7], 408 nM. Moreover, in experiment [5], the “THP-1 TGI” value is 1700 nM. Besides, the “K-562 TGI” value in experiment [6] was more than 10000 nM. The “MV-4-11 TGI” value in experiment [7] was 592 nM.
As to `COc1ncc(-c2nc3c([nH]2)[C@@H](c2ccc(Cl)cc2)N(c2cc(OC)c4nnc(C)n4c2)C3=O)c(OC)n1` [Example 128, (R)-6-(4-chlorophenyl)-2-(2,4-dimethoxypyrimidin-5-yl)-5-(8-methoxy-3-methyl-[1,2,4]triazolo[4,3-a]pyridin-6-yl)-5,6-dihydropyrrolo[3,4-d]imidazol-4(1H)-one], the 50% inhibitory concentration (IC50) in experiment [1] came out at 84.5 nM; in experiment [2], 220 nM; in experiment [3], 136 nM; in experiment [4], 16400 nM. In addition, the results for the concentration for 50% growth inhibition (GI50) in experiment [5], in experiment [6] and in experiment [7] were 371 nM, 1230 nM and 188 nM, respectively. Further, in experiment [5], the “THP-1 TGI” value was 947 nM. Further, the “K-562 TGI” value in experiment [6] is more than 10000 nM. Besides, in experiment [7], the “MV-4-11 TGI” value is 350.5 nM.
`COc1ccc(-c2nc3c([nH]2)[C@@H](c2ccc(Cl)cc2)N(c2cc(C)c4nnc(C)n4c2)C3=O)cn1` [Example 129, (R)-6-(4-chlorophenyl)-5-(3,8-dimethyl-[1,2,4]triazolo[4,3-a]pyridin-6-yl)-2-(6-methoxypyridin-3-yl)-5,6-dihydropyrrolo[3,4-d]imidazol-4(1H)-one]: the IC50 in experiment [1] was 1840 nM; in experiment [2], 4700 nM; in experiment [3], 2320 nM; in experiment [4], more than 37000 nM. Besides, the GI50 in experiment [5] is 662 nM; in experiment [6], 1070 nM; in experiment [7] it was 209 nM. The “THP-1 TGI” value in experiment [5] was found to be 1080 nM. Besides, the “K-562 TGI” value in experiment [6] is more than 10000 nM. Besides, the “MV-4-11 TGI” value in experiment [7] was determined as 343 nM.
Consider `Cc1cc(N2C(=O)c3nc(N4CCOCC4)n(C)c3C2c2ccc(Cl)cc2)cn(C)c1=O` (centres unmarked) [Example 130, 6-(4-chlorophenyl)-5-(1,5-dimethyl-6-oxo-1,6-dihydropyridin-3-yl)-1-methyl-2-morpholino-5,6-dihydropyrrolo[3,4-d]imidazol-4(1H)-one], for which the IC50 amounted to 180 nM in experiment [1], 230 nM in experiment [2], 160 nM in experiment [3] and 2400 nM in experiment [4]. The 50% growth inhibitory concentration (GI50) in experiment [5] came to 526 nM; in experiment [6], 1940 nM; in experiment [7], 167 nM. Further, in experiment [5], the “THP-1 TGI” value came to 1210 nM. The “K-562 TGI” value in experiment [6] was more than 10000 nM. Moreover, the “MV-4-11 TGI” value in experiment [7] was 390.5 nM.
For the compound `Cc1cc(N2C(=O)c3nc(C)n(C(C)C)c3C2c2ccc(Cl)cc2)cn2c(C(F)F)nnc12` (centres unmarked) [Example 131, 6-(4-chlorophenyl)-5-(3-(difluoromethyl)-8-methyl-[1,2,4]triazolo[4,3-a]pyridin-6-yl)-1-isopropyl-2-methyl-5,6-dihydropyrrolo[3,4-d]imidazol-4(1H)-one], the half-maximal inhibitory concentration (IC50) is 28 nM in experiment [1], 49 nM in experiment [2], 31 nM in experiment [3] and more than 37000 nM in experiment [4]. Also, the GI50 in experiment [5] was determined as 23.8 nM; in experiment [6], 87.5 nM; in experiment [7] it was 16.4 nM. Also, in experiment [5], the “THP-1 TGI” value was determined as 55 nM. In addition, the “K-562 TGI” value in experiment [6] was more than 10000 nM. For the same compound, the “MV-4-11 TGI” value in experiment [7] is 29.5 nM.
With `COc1ncccc1-c1nc2c(n1C(C)C)C(c1ccc(Cl)cc1)N(c1cc(C)c3nnc(C(F)F)n3c1)C2=O` (centres unmarked) [Example 132, 6-(4-chlorophenyl)-5-(3-(difluoromethyl)-8-methyl-[1,2,4]triazolo[4,3-a]pyridin-6-yl)-1-isopropyl-2-(2-methoxypyridin-3-yl)-5,6-dihydropyrrolo[3,4-d]imidazol-4(1H)-one], the IC50 in experiment [1] was less than 11 nM; in experiment [2], 19 nM; in experiment [3], 12 nM; in experiment [4] it was 27500 nM. The GI50 turned out to be 12.6 nM in experiment [5], 51.8 nM in experiment [6] and 9.44 nM in experiment [7]. In experiment [5], the “THP-1 TGI” value is 33.15 nM. The “K-562 TGI” value in experiment [6] was more than 10000 nM. The “MV-4-11 TGI” value in experiment [7] was 18.9 nM.
In the case of `COc1ncccc1-c1nc2c([nH]1)C(c1ccc(Cl)cc1)N(c1cc(C)c3nnn(C)c3c1)C2=O` (centres unmarked) [Example 133, 6-(4-chlorophenyl)-5-(3,7-dimethyl-3H-benzo[d][1,2,3]triazol-5-yl)-2-(2-methoxypyridin-3-yl)-5,6-dihydropyrrolo[3,4-d]imidazol-4(1H)-one], the 50% inhibitory concentration (IC50) in experiment [1] came out at 23 nM; in experiment [2] it was 35 nM; in experiment [3], 19.5 nM; in experiment [4], 5400 nM. The GI50 in experiment [5] came out at 65.6 nM; in experiment [6], 142 nM; in experiment [7], 35.1 nM. Besides, the “THP-1 TGI” value in experiment [5] was 137.5 nM. The “K-562 TGI” value in experiment [6] is more than 10000 nM. Besides, the “MV-4-11 TGI” value in experiment [7] was 60.8 nM.
As for `Cc1cc(N2C(=O)c3nc(C4=CCOCC4)[nH]c3C2c2ccc(Cl)cc2)cn(C)c1=O` (centres unmarked) [Example 134, 6-(4-chlorophenyl)-2-(3,6-dihydro-2H-pyran-4-yl)-5-(1,5-dimethyl-6-oxo-1,6-dihydropyridin-3-yl)-5,6-dihydropyrrolo[3,4-d]imidazol-4(1H)-one], the IC50 in experiment [1] stood at 38 nM; in experiment [2] it was 80 nM; in experiment [3] it was 35 nM; in experiment [4] it was 1680 nM. Moreover, the GI50 in experiment [5] was found to be 120 nM; in experiment [6], 610 nM; in experiment [7], 72.4 nM. Further, in experiment [5], the “THP-1 TGI” value amounted to 399 nM. For the same compound, the “K-562 TGI” value in experiment [6] was more than 10000 nM. Also, the “MV-4-11 TGI” value in experiment [7] is 141 nM.
In the case of `Cc1cc(N2C(=O)c3nc(C4=CCN(C)CC4)[nH]c3C2c2ccc(Cl)cc2)cn(C)c1=O` (centres unmarked) [Example 135, 6-(4-chlorophenyl)-5-(1,5-dimethyl-6-oxo-1,6-dihydropyridin-3-yl)-2-(1-methyl-1,2,3,6-tetrahydropyridin-4-yl)-5,6-dihydropyrrolo[3,4-d]imidazol-4(1H)-one], the IC50 in experiment [1] came out at 31 nM; in experiment [2], 53 nM; in experiment [3], 37 nM; in experiment [4], 3850 nM. The concentration for 50% growth inhibition (GI50) stood at 265 nM in experiment [5], 806 nM in experiment [6] and 64.9 nM in experiment [7]. Further, the “THP-1 TGI” value in experiment [5] came out at 964 nM. Further, in experiment [6], the “K-562 TGI” value was more than 10000 nM. Further, the “MV-4-11 TGI” value in experiment [7] came to 111.5 nM.
For `COc1ccc(-c2nc3c(n2C(C)C)C(c2ccc(Cl)cc2)N(c2cc(C)c4nnn(C)c4n2)C3=O)cn1` (centres unmarked) [Example 138, 6-(4-chlorophenyl)-5-(3,7-dimethyl-3H-[1,2,3]triazolo[4,5-b]pyridin-5-yl)-1-isopropyl-2-(6-methoxypyridin-3-yl)-5,6-dihydropyrrolo[3,4-d]imidazol-4(1H)-one], the IC50 in experiment [1] was 11 nM; in experiment [2], 26 nM; in experiment [3] it was 11 nM; in experiment [4], more than 37000 nM. Further, the figures for the GI50 in experiment [5], in experiment [6] and in experiment [7] were 9.37 nM, 37.2 nM and 7.97 nM, respectively. Also, the “THP-1 TGI” value in experiment [5] was determined as 23.6 nM. Besides, the “K-562 TGI” value in experiment [6] was more than 10000 nM. Besides, the “MV-4-11 TGI” value in experiment [7] was determined as 13 nM.

The values above are taken from patent publication US9890166B2, “Imidazopyrrolidine derivatives and their use in the treatment of disease” (NOVARTIS AG, priority 2013, dated 2018).
